According to US20130102009A1, “SIRTUIN ACTIVATORS AND ACTIVATION ASSAYS” (priority 2010, published 2013):
“And” between values parts separate entries of the source, which are not always exact repeats. Equal entries are not always repeated. Where two headings read alike, the source gives them in different places.

Assays:
SIRT1 = target: T1, SIRT1 (Homo sapiens, UniProt Q96EB6); assay: Fits of SIRT1 activation data (TAMRA-peptide) to kinetic models: Michaelis-Menten, eq (5), eq (9); type: biochemical; settings: for Vmax,app: data of Milne et al. fit to Michaelis-Menten equation
T1 sequence (Q96EB6 1-747): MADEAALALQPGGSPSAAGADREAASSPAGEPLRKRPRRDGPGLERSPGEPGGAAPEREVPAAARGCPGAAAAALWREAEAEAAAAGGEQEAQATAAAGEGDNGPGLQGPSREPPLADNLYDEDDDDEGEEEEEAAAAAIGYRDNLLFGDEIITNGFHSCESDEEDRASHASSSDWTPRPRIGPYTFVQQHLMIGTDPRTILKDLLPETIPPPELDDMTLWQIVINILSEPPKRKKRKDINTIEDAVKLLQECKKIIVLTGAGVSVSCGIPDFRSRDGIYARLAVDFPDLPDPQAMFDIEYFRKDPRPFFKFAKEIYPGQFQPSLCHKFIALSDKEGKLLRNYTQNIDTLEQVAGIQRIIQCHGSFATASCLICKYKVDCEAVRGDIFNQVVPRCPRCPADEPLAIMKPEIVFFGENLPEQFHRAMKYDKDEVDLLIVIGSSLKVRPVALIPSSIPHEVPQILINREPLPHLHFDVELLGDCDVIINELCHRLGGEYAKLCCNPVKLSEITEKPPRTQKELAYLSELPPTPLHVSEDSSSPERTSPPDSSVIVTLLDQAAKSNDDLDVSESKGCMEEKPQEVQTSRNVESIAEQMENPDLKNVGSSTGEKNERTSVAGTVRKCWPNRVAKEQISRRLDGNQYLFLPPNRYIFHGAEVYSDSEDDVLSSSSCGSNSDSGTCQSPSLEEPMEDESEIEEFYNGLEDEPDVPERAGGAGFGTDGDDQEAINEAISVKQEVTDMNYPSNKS
Description: The rate law for the mechanism of FIG. 2A can be derived starting with the expression of eq (4), which was derived using the rapid equilibrium assumption. To express the rate law in terms of total and free substrate, eq (4) can be […] show in eq (5). This derivation will be complete if we can express [S] in terms of [S]o, [X]o, and Kd. This starts with the definition of Kd, given in eq (6): The rate law for the mechanism of FIG. 2B can be derived using the rapid equilibrium assumption and is given in eq (9). […] To determine if the mechanism of FIG. 2A could accommodate such an activator, we fit the activation titration curve reported in Milne et al. ((2007) Nature 450, 712-716) to the expression of eq (5). This curve is reproduced in FIG. 7A. […] In this fitting, the following constraints were used: […] If the mechanism of FIG. 2A obtains for SRT1460, parameter estimates from the two types of experiment must be the same. […] Enzyme allostery can account for the activation of the SIRT1-Catalyzed deacetylation of TAMRA-Peptide by SRT1460 When the rate law for the allosteric mechanism of activation, is used to fit the data of FIG. 7B the following best-fit parameters are obtained: Kx=8.7±0.8 μM, β=0.26±0.02, and γ=1.48±0.04. The lines drawn using eq (9) and these parameters show an excellent fit to the data. These lines superimpose on those drawn from the individual fits and the parameter estimates of Table 5.

[1] = target: Ac-Arg-His-Lys-Lys^Ac-Phe-NH2; assay: ITC binding of STACs to Ac-Arg-His-Lys-Lys^Ac-X, X=PheNH2; settings: 10% DMSO for SRT1720, SRT2183 and 10, no cosolvent for SRT1460
Experimental: (§1) ITC experiments were performed using either a VP-ITC system or iTC200 system (MicroCal) at 26° C. in a buffer composed of 137 mM NaCl, 2.7 mM KCl, 1 mM MgCl2, 2 mM TCEP, 5% (v/v) glycerol and 50 mM HEPES-NaOH, pH 7.3. SIRT1(183-664) was purified and dialyzed against the buffer, centrifuged, and degassed before the experiment. The peptide and compounds were dissolved in the final dialysis buffer and their pH values were adjusted to match that of the protein solution. […] To characterize this interaction using the iTC200 system, 1 mM TAMRA-peptide was injected in 20 aliquots of 2 μL, (except the first injection, which was 0.5 μL) into a 0.202 mL sample cell containing 100 μM STAC. For STACs with poor solubility, the concentrations were adjusted accordingly. […] In all cases, data was corrected for the heat of dilution and fitted using a nonlinear least-squares routine using a single-site binding model with Origin for ITC v7.0383 (Microcal) with the stoichiometry (n), the enthalpy of the reaction (ΔH) and the association constant (Ka) calculated. Table 2 summarizes Kd values for the binding of STACs to […]. Note that except for SRT1460, the solubility of the compounds required that these ITC experiments be done in solutions containing 10% DMSO.

[2] = target: Ac-Arg-His-Lys-Lys^Ac-Trp-NH2; assay: ITC binding of STACs to Ac-Arg-His-Lys-Lys^Ac-X, X=TrpNH2; settings: 10% DMSO for SRT1720, SRT2183 and 10, no cosolvent for SRT1460
Experimental: as §1

[3] = target: Ac-Arg-His-Lys-Lys^Ac-AMC; assay: ITC binding of STACs to Ac-Arg-His-Lys-Lys^Ac-X, X=AMC; settings: 10% DMSO for SRT1720, SRT2183 and 10, no cosolvent for SRT1460
Experimental: as §1

Row | SMILES | γ, best fit of activator titration curve to eq (5) (indirect mechanism of FIG. 2A) (SIRT1; [S]o and Km constrained) | Kd [1] | Kd for binding to Ac-Arg-His-Lys-Lys^Ac-X, X=PheNH2 [1] | Kd [2] | Kd for binding to Ac-Arg-His-Lys-Lys^Ac-X, X=TrpNH2 [2] | Kd [3] | γ, global fit of velocity vs substrate data at fixed activator concentrations (FIG. 7B) to eq (5) (SIRT1; Kd assigned 140 μM, data of Milne et al.) | Km (SIRT1; Kd assigned 140 μM, data of Milne et al., read-out: Km,x, global fit of velocity vs substrate data at fixed activator concentrations (FIG. 7B) to eq (5)) | Km (SIRT1; Kd, [S]o and Km constrained, read-out: Km,x, best fit of activator titration curve to eq (5) (indirect mechanism of FIG. 2A)) | Vmax,app (SIRT1; [SRT1460] 3 μM) | Vmax,app (SIRT1; [SRT1460] 11 μM) | Vmax,app (SIRT1; [SRT1460] 37 μM) | Km (SIRT1; [S]o and Km constrained, read-out: Km,x, best fit of activator titration curve to eq (5) (indirect mechanism of FIG. 2A)) | Kx, best fit of FIG. 7B data to allosteric rate law eq (9) (SIRT1; data of Milne et al.) | β, best fit of FIG. 7B data to allosteric rate law eq (9) (SIRT1; data of Milne et al.) | γ, best fit of FIG. 7B data to allosteric rate law eq (9) (SIRT1; data of Milne et al.)
1 | CCCCc1nc(NC2CCNCC2)cc(C(=O)Nc2ccccc2-c2nc3cc(COC4CCNCC4)cnc3s2)n1 [Compound 10, 2-butyl-6-(piperidin-4-ylamino)-N-(2-(6-((piperidin-4-yloxy)methyl)thiazolo[5,4-b]pyridin-2-yl)phenyl)pyrimidine-4-carboxamide] | 0.69±0.08 | 190 µM | does bind | 25 µM | binds | > 500 µM |  |  |  |  |  |  |  |  |  | 
2 | COc1cc(C(=O)Nc2ccccc2-c2cn3c(CN4CCNCC4)csc3n2)cc(OC)c1OC [SRT1460] | 0.20 and 0.20 ± 0.01 | > 500 µM | no binding | > 500 µM |  | > 500 µM | 1.53±0.07 and 1.53 | 1 ± 0.1 µM | 0.09 µM | 11 units | 12 units | 14 units | 0.09 µM | 8.7 ± 0.8 µM | 0.26±0.02 | 1.48±0.04
